In general, GI50 refers to the concentration that inhibits growth by half. By inhibition is commonly meant the percentage by which the read-out fell short of the control. What is called IC50 is the concentration needed to halve the response being measured.

For experiment [1], the system named is KYSE-70 esophageal cancer cell line. Put plainly: Cell growth inhibition of KYSE-70 (Sulforhodamine B). It is filed as cell-based. The settings on record: Homo sapiens; KYSE-70, 72 hours; read-out: KYSE70 GI50. Put shortly:
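KYSE-70 cells (YES1-amplified) in RPMI-1640 with 10% FBS were seeded 24 h before treatment with compound at 0.0046–10 µM final. After 72 h, cells were TCA-fixed and stained with sulforhodamine B, with absorbance read at 510 nm. GI50 was derived with a time-zero plate set to 0% and the vehicle control to 100%, in duplicate tests.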

The target in the next experiment is YES1 kinase (Homo sapiens, UniProt P07947). Put plainly: YES1 kinase inhibition, ADP Glo assay (Promega). Format: biochemical. The settings on record: for inhibition at 0.01 µM: compound 10 nM, read-out: YES1 enzyme, % inhibition, 10 nM; for inhibition at 0.1 µM: compound 100 nM, read-out: YES1 enzyme, % inhibition, 100 nM; for IC50: class symbols, read-out: YES1 enzyme, IC50; for YES1 kinase inhibition at 1 nM (in words) / inhibition at 0.001 µM: compound 1 nM; for inhibition at 0.001 µM: read-out: YES1 enzyme, % inhibition, 1 nM. An outline of the steps:
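ADP-Glo luminescence after a 40 min room-temperature reaction of YES1 with ATP and substrate (buffer with MnCl2 and DTT; 10 min compound preincubation) was used as readout. Percent inhibition at 1, 10 and 100 nM compound was calculated relative to negative control after background subtraction, and IC50 values derived.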
(In ADP-Glo the light output rises with the ADP produced.)

A value given as a limit tells only on which side of the number the result lay.

Sequence of YES1 kinase (P07947 whole entry): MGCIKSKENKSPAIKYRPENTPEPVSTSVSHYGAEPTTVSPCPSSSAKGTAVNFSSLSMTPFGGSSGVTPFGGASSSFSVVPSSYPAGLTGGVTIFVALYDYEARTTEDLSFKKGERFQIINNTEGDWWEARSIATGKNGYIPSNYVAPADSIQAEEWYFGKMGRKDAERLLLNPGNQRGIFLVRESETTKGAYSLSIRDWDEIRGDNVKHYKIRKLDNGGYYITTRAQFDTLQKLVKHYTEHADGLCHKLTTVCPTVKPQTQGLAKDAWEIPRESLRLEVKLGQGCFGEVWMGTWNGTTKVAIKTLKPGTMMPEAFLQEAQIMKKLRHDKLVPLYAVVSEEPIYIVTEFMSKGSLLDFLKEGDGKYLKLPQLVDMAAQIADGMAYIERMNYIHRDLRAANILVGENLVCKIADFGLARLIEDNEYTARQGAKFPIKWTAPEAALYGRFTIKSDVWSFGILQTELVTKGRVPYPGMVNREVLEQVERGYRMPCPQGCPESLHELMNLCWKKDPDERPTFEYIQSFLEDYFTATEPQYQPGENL

For `COc1cc(-c2cc(N3CCC4(CCNC4=O)CC3)n3ncnc(N)c23)ccc1NC(=O)OC(C)(C)C` [Example 53, tert-butyl (4-(4-amino-7-(1-oxo-2,8-diazaspiro[4.5]decan-8-yl)pyrrolo[2,1-f][1,2,4]triazin-5-yl)-2-methoxyphenyl)carbamate], in experiment [1], the GI50 is not above 100 nM. Further, on YES1 kinase, the inhibition at 0.01 µM is 29% and the inhibition at 0.1 µM came out at 60%.

Take `COc1cc(-c2cc(N3CCC[C@@H](CN(C)C)C3)n3ncnc(N)c23)ccc1NC(=O)OC(C)(C)C` [Example 40, tert-butyl (S)-(4-(4-amino-7-(3-((dimethylamino)methyl)piperidin-1-yl)pyrrolo[2,1-f][1,2,4]triazin-5-yl)-2-methoxyphenyl)carbamate]: the GI50 in experiment [1] was in the range of 1000 to 10000 nM. Moreover, on YES1 kinase, the inhibition at 0.01 µM came to 5% and the inhibition at 0.1 µM amounted to 43%.

Take `COc1cc(-c2cc(N3CC4CC3CC4N)n3ncnc(N)c23)ccc1NC(=O)OC(C)(C)C` (centres unmarked) [Example 51, tert-butyl (4-(4-amino-7-(5-amino-2-azabicyclo[2.2.1]heptan-2-yl)pyrrolo[2,1-f][1,2,4]triazin-5-yl)-2-methoxyphenyl)carbamate]: the GI50 in experiment [1] was 100 to 1000 nM. For the same compound, on YES1 kinase, the inhibition at 0.01 µM is 70% and the inhibition at 0.1 µM came to 90%.

Regarding `CN(C)C1CCN(c2cc(-c3ccc(Oc4ccccc4)cc3)c3c(N)ncnn23)CC1` [Example 136, 7-(4-(dimethylamino)piperidin-1-yl)-5-(4-phenoxyphenyl)pyrrolo[2,1-f][1,2,4]triazin-4-amine], the GI50 in experiment [1] is not above 100 nM. Moreover, at YES1 kinase, the inhibition at 0.01 µM was 64% and the inhibition at 0.1 µM is 90%.

Consider `COc1cc(-c2cc(N3CC4(CCN(C)CC4)C3)n3ncnc(N)c23)ccc1NC(=O)OC(C)(C)C` [Example 38, tert-butyl (4-(4-amino-7-(7-methyl-2,7-diazaspiro[3.5]nonan-2-yl)pyrrolo[2,1-f][1,2,4]triazin-5-yl)-2-methoxyphenyl)carbamate], for which the GI50 in experiment [1] was not above 100 nM. At YES1 kinase, the inhibition at 0.01 µM came out at 44% and the inhibition at 0.1 µM stood at 80%.

Take `COc1cc(-c2cc(N3CCC(N)CC3)n3ncnc(N)c23)ccc1NC(=O)OC(C)(C)CF` [Example 65, 1-fluoro-2-methylpropan-2-yl (4-(4-amino-7-(4-aminopiperidin-1-yl)pyrrolo[2,1-f][1,2,4]triazin-5-yl)-2-methoxyphenyl)carbamate]: the GI50 in experiment [1] is 100 to 1000 nM. Moreover, on YES1 kinase, the IC50 was not above 100 nM.

Regarding `COc1cc(-c2cc(N3CCC(N)CC3)n3ncnc(N)c23)ccc1NC(=O)OC(C)(C)C` [Example 12, tert-butyl (4-(4-amino-7-(4-aminopiperidin-1-yl)pyrrolo[2,1-f][1,2,4]triazin-5-yl)-2-methoxyphenyl)carbamate], in experiment [1], the GI50 was in the range of 100 to 1000 nM. On YES1 kinase, the inhibition at 0.01 µM was determined as 65% and the inhibition at 0.1 µM is 86%.

With `COc1cc(-c2cc(N3CCC4(CCCN4)CC3)n3ncnc(N)c23)ccc1NC(=O)OC(C)(C)C` [Example 23, tert-butyl (4-(4-amino-7-(1,8-diazaspiro[4.5]decan-8-yl)pyrrolo[2,1-f][1,2,4]triazin-5-yl)-2-methoxyphenyl)carbamate], the GI50 in experiment [1] is not above 100 nM. Also, on YES1 kinase, the inhibition at 0.01 µM amounted to 58% and the inhibition at 0.1 µM worked out at 87%.

Regarding `COc1cc(-c2cc(N3CCC4(CC3)CC(=O)N4)n3ncnc(N)c23)ccc1NC(=O)OC(C)(C)C` [Example 56, tert-butyl (4-(4-amino-7-(2-oxo-1,7-diazaspiro[3.5]nonan-7-yl)pyrrolo[2,1-f][1,2,4]triazin-5-yl)-2-methoxyphenyl)carbamate], in experiment [1], the GI50 was not above 100 nM. In addition, on YES1 kinase, the IC50 was not above 100 nM, the inhibition at 0.01 µM was 23% and the inhibition at 0.1 µM was 68%.

For `COc1cc(-c2cc(N3CCC4(CCN(C)C4)CC3)n3ncnc(N)c23)ccc1NC(=O)OC(C)(C)C` [Example 22, tert-butyl (4-(4-amino-7-(2-methyl-2,8-diazaspiro[4.5]decan-8-yl)pyrrolo[2,1-f][1,2,4]triazin-5-yl)-2-methoxyphenyl)carbamate], in experiment [1], the GI50 is 100 to 1000 nM. Besides, on YES1 kinase, the inhibition at 0.01 µM was determined as 60% and the inhibition at 0.1 µM was 87%.

Turning to `COc1cc(-c2cc(N[C@H]3CC[C@H](N(C)C)C3)n3ncnc(N)c23)ccc1NC(=O)OC(C)(C)C` [Example 112, tert-butyl (4-(4-amino-7-(((1S,3S)-3-(dimethylamino)cyclopentyl)amino)pyrrolo[2,1-f][1,2,4]triazin-5-yl)-2-methoxyphenyl)carbamate], the GI50 in experiment [1] lay in the range of 100 to 1000 nM. At YES1 kinase, the “YES1 kinase inhibition at 1 nM (in words)” value is given as “could be inhibited even at a low concentration of 1 nM”, the inhibition at 0.001 µM was found to be 29% and the inhibition at 0.01 µM was determined as 60%.

Take `COc1cc(-c2c(F)c(N3CCC(N(C)C)CC3)n3ncnc(N)c23)ccc1NC(=O)OC(C)(C)C` [Example 128, tert-butyl (4-(4-amino-7-(4-(dimethylamino)piperidin-1-yl)-6-fluoropyrrolo[2,1-f][1,2,4]triazin-5-yl)-2-methoxyphenyl)carbamate]: the GI50 in experiment [1] was not above 100 nM. At YES1 kinase, the IC50 was not above 100 nM, the inhibition at 0.01 µM came to 72% and the inhibition at 0.1 µM came out at 92%.

Turning to `COc1cc(-c2cc(N3CCC4C(CCN4C)C3)n3ncnc(N)c23)ccc1NC(=O)OC(C)(C)C` (centres unmarked) [Example 26, tert-butyl (4-(4-amino-7-(1-methyloctahydro-5H-pyrrolo[3,2-c]pyridin-5-yl)pyrrolo[2,1-f][1,2,4]triazin-5-yl)-2-methoxyphenyl)carbamate], the 50% growth inhibitory concentration (GI50) in experiment [1] fell in the range of 1000 to 10000 nM. On YES1 kinase, the inhibition at 0.01 µM was 30% and the inhibition at 0.1 µM is 69%.

As to `COc1cc(-c2cc(N3CCC(CN)CC3)n3ncnc(N)c23)ccc1NC(=O)OC(C)(C)C` [Example 59, tert-butyl (4-(4-amino-7-(4-(aminomethyl)piperidin-1-yl)pyrrolo[2,1-f][1,2,4]triazin-5-yl)-2-methoxyphenyl)carbamate], the GI50 in experiment [1] was in the range of 100 to 1000 nM. Besides, on YES1 kinase, the IC50 was not above 100 nM, the inhibition at 0.01 µM came out at 56% and the inhibition at 0.1 µM was determined as 80%.

Regarding `COc1cc(-c2cc(N3CCC(N)C(C)(C)C3)n3ncnc(N)c23)ccc1NC(=O)OC(C)(C)C` (centres unmarked) [Example 94, tert-butyl (4-(4-amino-7-(4-amino-3,3-dimethylpiperidin-1-yl)pyrrolo[2,1-f][1,2,4]triazin-5-yl)-2-methoxyphenyl)carbamate], in experiment [1], the GI50 is not above 100 nM. In addition, at YES1 kinase, the concentration for half-maximal inhibition (IC50) is not above 100 nM, the inhibition at 0.01 µM was determined as 41% and the inhibition at 0.1 µM worked out at 78%.

As to `COc1cc(-c2cc(N3CCC4(CC3)CC(=O)N(C)C4)n3ncnc(N)c23)ccc1NC(=O)OC(C)(C)C` [Example 27, tert-butyl (4-(4-amino-7-(2-methyl-3-oxo-2,8-diazaspiro[4.5]decan-8-yl)pyrrolo[2,1-f][1,2,4]triazin-5-yl)-2-methoxyphenyl)carbamate], in experiment [1], the GI50 was 1000 to 10000 nM. Moreover, on YES1 kinase, the inhibition at 0.01 µM came to 59% and the inhibition at 0.1 µM was found to be 74%.

Turning to `COc1cc(-c2cc(NCC3CCNCC3)n3ncnc(N)c23)ccc1NC(=O)OC(C)(C)C` [Example 117, tert-butyl (4-(4-amino-7-((piperidin-4-ylmethyl)amino)pyrrolo[2,1-f][1,2,4]triazin-5-yl)-2-methoxyphenyl)carbamate], the GI50 in experiment [1] fell in the range of 100 to 1000 nM. Also, at YES1 kinase, the inhibition at 0.01 µM was found to be 39% and the inhibition at 0.1 µM came out at 64%.

For the compound `COc1cc(-c2c(F)c(N3CCC(N)CC3)n3ncnc(N)c23)ccc1NC(=O)OC(C)(C)C` [Example 127, tert-butyl (4-(4-amino-7-(4-aminopiperidin-1-yl)-6-fluoropyrrolo[2,1-f][1,2,4]triazin-5-yl)-2-methoxyphenyl)carbamate], the GI50 in experiment [1] is not above 100 nM. For the same compound, on YES1 kinase, the 50% inhibitory concentration (IC50) is not above 100 nM, the inhibition at 0.01 µM was 67% and the inhibition at 0.1 µM amounted to 88%.

With `COc1cc(-c2cc(N3CCC(CN)C(C)(C)C3)n3ncnc(N)c23)ccc1NC(=O)OC(C)(C)C` (centres unmarked) [Example 104, tert-butyl (4-(4-amino-7-(4-(aminomethyl)-3,3-dimethylpiperidin-1-yl)pyrrolo[2,1-f][1,2,4]triazin-5-yl)-2-methoxyphenyl)carbamate], the GI50 in experiment [1] fell in the range of 100 to 1000 nM. On YES1 kinase, the “YES1 kinase inhibition at 1 nM (in words)” value was “could be inhibited even at a low concentration of 1 nM”, the inhibition at 0.001 µM was 33% and the inhibition at 0.01 µM was determined as 45%.

For the compound `COc1cc(-c2cc(N3CCC(CCN(C)C)CC3)n3ncnc(N)c23)ccc1NC(=O)OC(C)(C)C` [Example 109, tert-butyl (4-(4-amino-7-(4-(2-(dimethylamino)ethyl)piperidin-1-yl)pyrrolo[2,1-f][1,2,4]triazin-5-yl)-2-methoxyphenyl)carbamate], in experiment [1], the GI50 is not above 100 nM. Besides, on YES1 kinase, the half-maximal inhibitory concentration (IC50) is not above 100 nM, the inhibition at 0.001 µM stood at 37% and the inhibition at 0.01 µM worked out at 51%.

Turning to `CN[C@@H]1CCN(c2cc(-c3ccc(NC(=O)OC(C)(C)C)c(OC)c3)c3c(N)ncnn23)C[C@@H]1F` [Example 87, tert-butyl (4-(4-amino-7-((3S,4R)-3-fluoro-4-(methylamino)piperidin-1-yl)pyrrolo[2,1-f][1,2,4]triazin-5-yl)-2-methoxyphenyl)carbamate], the GI50 in experiment [1] was not above 100 nM. Besides, on YES1 kinase, the IC50 is not above 100 nM, the inhibition at 0.01 µM came out at 61% and the inhibition at 0.1 µM stood at 80%.

For the origin of these results see US20260297095A1, “NOVEL PYRROLOTRIAZINE DERIVATIVE AND USE THEREOF” (Pelemed Co., Ltd., priority 2024, published 2026).
